Where only a bound is given, the exact number is not on record here.

For the first experiment, the target named is T1, SCD1 (Homo sapiens, UniProt O00767).
T1 construct: host or cells: S. cerevisiae ole1Δ strain, plasmid pRS316 with TDH3 promoter and CYC1 terminator
T1 sequence (O00767 1-359): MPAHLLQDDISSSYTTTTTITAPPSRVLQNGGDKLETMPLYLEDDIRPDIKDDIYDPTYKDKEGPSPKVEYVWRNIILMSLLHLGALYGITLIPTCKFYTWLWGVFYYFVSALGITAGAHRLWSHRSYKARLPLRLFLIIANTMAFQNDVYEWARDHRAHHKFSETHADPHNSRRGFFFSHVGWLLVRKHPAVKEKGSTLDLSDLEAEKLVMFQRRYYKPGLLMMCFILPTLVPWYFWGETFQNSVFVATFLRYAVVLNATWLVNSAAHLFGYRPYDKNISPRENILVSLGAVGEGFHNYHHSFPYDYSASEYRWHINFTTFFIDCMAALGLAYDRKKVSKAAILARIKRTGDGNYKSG
The experiment can be described thus: Growth inhibition of humanized yeast expressing SCD1 as sole desaturase. The following applies: humanized yeast expressing SCD1. Type of experiment: cell-based. How it is done:
Strain ole1Δ (yeast ole1 deletion mutant) was constructed by deleting OLE1 with NAT-MX6 in BY4741, amplifying the deletion cassette from the genomic DNA of the resulting strain with primers flanking the ORF by 1000 bp upstream and downstream, transforming the resulting deletion cassette into W303 pdr1Δ pdr3Δ, and plating transformants on YPD media containing G418 (200 μg/mL) and nourseothricin (100 μg/mL) with 0.01% TWEEN®-20 and 0.5 mM oleic and palmitoleic acids.
The coding sequence of yeast OLE1 was also cloned into this plasmid). These clones were then transformed into the ole1Δ strain and plated on CSM-Ura media (CSM lacking uracil) with 2% glucose (w/v) and independent colonies were isolated and amplified.
All compound profiling experiments were performed using the same basic protocol. Different genetic backgrounds (e.g., gene deletions) or conditions (e.g., addition of oleic and palmitoleic acid) were replaced as indicated below.
Yeast were cultured using standard techniques in complete synthetic media (CSM) and yeast nitrogen base supplemented with 2% (w/v) carbon source (glucose, raffinose, or galactose) to regulate the expression of the toxic disease protein. An initial starter culture was inoculated in 3 mL CSM-Glucose media and incubated overnight in a 30° C. shaker incubator (225 rpm). Saturated morning cultures were then diluted 1:20 in fresh CSM-Raffinose media and grown for 6 h to an OD600 (optical density) of ˜0.4-0.8 at 30° C. with shaking.
Compound administration was performed in two separate steps. First, 15 μL of CSM-Galactose (induces expression of toxic protein) was dispensed into clear 384 well assay plates using a MULTIDROP™ Combi reagent dispenser. […] The cultures described above were then diluted to a 2× concentration (0.03 and 0.08 for alpha-synuclein and ApoE, final OD600 of 0.015 and 0.04) in CSM-Galactose. For wild-type and Ole1/SCD1/SCD5 plasmid-containing strains, the 2× cell density was 0.02. […] For 96-well assays (FIGS. 1A and 1B), compound dilutions in DMSO were generated in 96 well plates and 1 μL was manually pipetted into 96 well clear bottom assay plates.
For experiments using a plasmid-borne copy of Ole1, SCD1, or SCD5 (FIGS. 3B, 6, and 7), media lacking uracil (SX-Ura, where X is glucose, raffinose, or galactose), was used for all steps of the compound profiling protocol to ensure its maintenance throughout the assay.
After yeast delivery, assay plates were incubated under humidified conditions at 30° C. for 24 to 40 h. ApoE4 rescue experiments were stopped at 24 h, aSyn experiments at 40 h, Ole1 at 24 h, and SCD1/SCD5 at 40 h. The growth of yeast was monitored by reading the OD600 of each well using a microplate reader (Perkin Elmer EnVision™).
Usually IC50 stands for the concentration that inhibits the measured activity by half. Read a low IC50 as greater potency. `COc1ccc(-c2noc(C3CCNCC3)n2)cc1OC` [Compound 488] came in with an IC50 of over 45 µM.

Turning to `CCN1C(=O)COc2ccc(-c3noc(C4(c5ccc(OC)cc5)CC4)n3)cc21` [Compound 491], the IC50 was over 45 µM.

The experiment is the same for the next values; noted with them: humanized yeast expressing human SCD1.
The compound `COC(=O)N1CCC(c2nc(-c3ccc4cnn(C(F)F)c4c3)no2)CC1` [Compound 561] gave an IC50 of over 45 µM. On the same count and under the same terms, the value for `CC(C)n1ncc2ccc(-c3nc(N4CCN(C(=O)OC(C)(C)C)CC4)no3)cc21` [Compound 548] was over 45 µM; that for `CC(C)c1ccc(C(=O)N2CCC(c3nc(C(=O)Nc4cnn(C)c4)no3)CC2)cc1` [Compound 285] was over 45 µM. The same measure, in the same setting: the value for `CC(=O)N1CCC2(CC1)CN(c1nc(-c3ccc4cnn(C(C)C)c4c3)no1)C2` [Compound 571] was over 45 µM; that for `Cc1nn(C)c2cc(-c3noc(N4CCN(C(=O)c5ccccc5C(F)(F)F)CC4)n3)ccc12` [Compound 295] was over 45 µM. As to `CC(C)n1ncc2ccc(-c3noc(C4CCN(C(=O)c5ccc(Cl)cc5F)CC4)n3)cc21` [Compound 533], the IC50 was over 45 µM. Same read-out and setting: the value for `Cc1nn(C)c2cc(-c3noc(C4CCN(C(=O)c5ccccc5Cl)CC4)n3)ccc12` [Compound 288] was over 45 µM; that for `CC(C)n1ncc2ccc(-c3noc(N4C[C@@H]5CNC[C@H]5C4)n3)cc21` [Compound 530] was over 45 µM; that for `CC(C)n1ncc2ccc(-c3noc(C4CCN(C(=O)[C@H]5CC(=O)N(c6cccc(C#N)c6)C5)CC4)n3)cc21` [Compound 529] was over 45 µM.

Regarding `O=C(CC1CC1)N1CCC(c2nc(-c3ccc4cnn(C5COC5)c4c3)no2)CC1` [Compound 558], the IC50 is over 45 µM. On the same count and under the same terms, the value for `Cc1nn(C)c2cc(-c3noc(N4CCN(C(=O)c5cccc(F)c5)CC4)n3)ccc12` [Compound 270] was over 45 µM. Same read-out and setting: the value for `COc1ccc(S(=O)(=O)N2CCC(c3nc(-c4ccc5cnn(C(C)C)c5c4)no3)CC2)c(Br)c1` [Compound 539] was over 45 µM.

The compound `Cc1nn(C)c2cc(-c3noc(C4CCN(C(=O)CC(C)(C)C)CC4)n3)ccc12` [Compound 263] showed a 50% inhibitory concentration (IC50) of over 45 µM. The same measure, in the same setting: the value for `Cc1nn(C)c2cc(-c3noc(C4CCN(C(=O)CNC(=O)c5cc(F)ccc5C(F)(F)F)CC4)n3)ccc12` [Compound 304] was over 45 µM. Same read-out and setting: the value for `CC(C)n1ncc2ccc(-c3noc(N4CCN(C(=O)c5ccccc5)CC4)n3)cc21` [Compound 362] was over 45 µM; that for `CC(C)c1ccc(C(=O)N2CCC(c3nc(C(=O)Nc4ccnn4C)no3)CC2)cc1` [Compound 287] was over 45 µM. As to `CC(C)n1ncc2ccc(-c3noc(C4CCN(C(=O)c5ccc(Cl)cn5)CC4)n3)cc21` [Compound 586], the IC50 was over 45 µM.

As to `Cc1nn(C(C)C)c2cc(-c3noc(C4CCN(C(=O)OC(C)(C)C)CC4)n3)ccc12` [Compound 343], the IC50 is over 45 µM.

On to `CC(C)N1C(=O)CCc2ccc(-c3noc(C4CCN(C(=O)OC(C)(C)C)CC4)n3)cc21` [Compound 572], for which the IC50 was over 45 µM. With `Cc1nn(C2CC2)c2cc(-c3noc(C4CCN(C(=O)CNC(=O)c5ccccc5)CC4)n3)ccc12` [Compound 286], the IC50 was over 45 µM. On the same count and under the same terms, for `CC(=O)N[C@H]1CC[C@H](c2nc(-c3ccc4cnn(C(C)C)c4c3)no2)CC1` [Compound 535] the value was over 45 µM; for `COC(=O)N1CCC(c2nc(-c3ccc4cnn(C(C)C)c4c3)no2)CC1` [Compound 355], over 45 µM; for `COC(=O)N1C[C@H]2CN(c3nc(-c4ccc5cnn(C(C)C)c5c4)no3)C[C@@H]2C1` [Compound 568], over 45 µM. On the same count and under the same terms, the value for `CC(C)n1ncc2ccc(-c3noc(C4CCN(C(=O)c5ncc(Cl)s5)CC4)n3)cc21` [Compound 589] was over 45 µM; that for `Cc1nn(C)c2ccc(-c3noc(C4CCN(C(=O)c5ccc(C(C)C)cc5)CC4)n3)cc12` [Compound 297] was over 45 µM.

Turning to `O=C(c1ccccc1Cl)N1CCC(c2nc(-c3ccc4cnn(C5COC5)c4c3)no2)CC1` [Compound 562], the IC50 was over 45 µM.

On to `Cc1nn(C)c2cc(-c3noc(N4CCN(C(=O)[C@H]5CC(=O)N(c6ccccc6)C5)CC4)n3)cnc12` [Compound 246], for which the IC50 was over 45 µM. The same measure, in the same setting: the value for `Cc1nn(C)c2cc(-c3noc([C@@H]4CCN(C(=O)CNC(=O)c5ccccc5)CC4(F)F)n3)ccc12` [Compound 577] was over 45 µM; that for `Cc1nn(C)c2cc(-c3nsc(C4CCN(C(=O)OC(C)(C)C)CC4)n3)ccc12` [Compound 503] was over 45 µM. Still for that read-out and setting: for `CC(C)n1ncc2ccc(-c3noc(C4CCN(C(=O)c5ccccc5F)CC4)n3)cc21` [Compound 532] the value was over 45 µM; for `CC(C)n1ncc2ccc(-c3noc([C@@H]4[C@@H]5CN(C(=O)OC(C)(C)C)C[C@@H]54)n3)cc21` [Compound 498], over 45 µM; for `Cc1nn(C)c2cc(-c3noc(C4CCN(C(=O)Oc5ccccc5)CC4)n3)ccc12` [Compound 272], over 45 µM.

In turn, `Cc1nn(C)c2cc(-c3nc(C4CCN(C(=O)CNC(=O)c5ccccc5)CC4)no3)ccc12` [Compound 326] showed an IC50 of over 45 µM.

Take `CCc1c2ccc(-c3noc(C4CCN(C(=O)CNC(=O)c5ccccc5)CC4)n3)cc2nn1C` [Compound 321]: the half-inhibitory concentration (IC50) is over 45 µM. Still for that read-out and setting: for `Cc1nn(C)c2cc(-c3noc(C4CCN(C(=O)c5cccc(F)c5)CC4)n3)ccc12` [Compound 284] the value was over 45 µM; for `Cc1nn(C)c2cc(-c3noc(C4CCN(C(=O)c5cc(F)ccc5C(F)(F)F)CC4)n3)ccc12` [Compound 292], over 45 µM. In turn, `CCN1C(=O)CN(C)c2cc(-c3noc(C4CCN(C(=O)CNC(=O)c5ccccc5)CC4)n3)ccc21` [Compound 310] had an IC50 of over 45 µM.

The compound `CC(C)n1ncc2ccc(-c3noc(C4CCN(C(=O)c5ncccc5Cl)CC4)n3)cc21` [Compound 587] showed an IC50 of over 45 µM.

In turn, `CC(C)n1ncc2ccc(-c3noc(C4CCN(C(=O)COc5ccccc5)CC4)n3)cc21` [Compound 358] displayed an IC50 of over 45 µM. Same read-out and setting: the value for `Cc1nn(C)c2cc(-c3noc(C4CCN(S(=O)(=O)C(C)C)CC4)n3)ccc12` [Compound 279] was over 45 µM. Still for that read-out and setting: for `CC(C)n1ncc2ccc(N3CC4(CCN(C(=O)OC5CC5)CC4)C3)cc21` [Compound 594] the value was over 45 µM. `CCn1nc(C)c2ccc(-c3noc(C4CCN(C(=O)OC(C)(C)C)CC4)n3)cc21` [Compound 301]: the IC50 was over 45 µM. The same measure, in the same setting: the value for `Cc1nn(C)c2cc(-c3noc(N4CCN(C(=O)c5ccccc5)CC4)n3)ccc12` [Compound 261] was over 45 µM; that for `Cc1nn(C)c2cc(-c3noc(C4CCN(C(=O)CNC(=O)c5ccccc5C(F)(F)F)CC4)n3)ccc12` [Compound 271] was over 45 µM. Still for that read-out and setting: the value for `COCC(=O)N1CCN(c2nc(-c3ccc4cnn(C(C)C)c4c3)no2)CC1` [Compound 595] was over 45 µM; that for `CC(C)n1ncc2ccc(-c3noc(C4CCN(C(=O)c5ccsc5Cl)CC4)n3)cc21` [Compound 575] was over 45 µM; that for `CC(C)OC(=O)N1CCC(c2nc(-c3ccc4cnn(C(C)C)c4c3)no2)CC1` [Compound 357] was over 45 µM. In turn, `CC(C)n1ncc2ccc(-c3noc(C4CCN(C(=O)c5cccs5)CC4)n3)cc21` [Compound 574] registered an IC50 of over 45 µM. `Cc1nn(C)c2cc(-c3nsc(C4CCN(C(=O)CNC(=O)c5ccccc5)CC4)n3)ccc12` [Compound 250] returned an IC50 of over 45 µM. Compound `CC(C)n1ncc2ccc(-c3noc(N4CC5(CCN(C(=O)OC(C)(C)C)CC5)C4)n3)cc21` [Compound 555] had an IC50 of over 45 µM. The compound `N#Cc1cccc(N2C[C@H](C(=O)N3CCC(c4nc(-c5ccc6cnn(C7COC7)c6c5)no4)CC3)CC2=O)c1` [Compound 600] returned an IC50 of over 45 µM.

The values are drawn from patent publication US20240400546A1, “COMPOUNDS AND USES THEREOF” (JANSSEN PHARMACEUTICA NV, priority 2016, published 2024).
